Columns and labels:
MmRadA [1] = molecular target: T1, MmRadA (Methanococcus maripaludis, UniProt P0CW58); assay: Malachite Green phosphate release (ATPase); type: biochemical; conditions: 5 mM ATP, 10 mM MgCl2, pH 7.4, 100 mM KCl, poly-(dT)36 ssDNA; mere turnover
T1 construct: gene radA; full open reading frame in pET28a (NcoI/XhoI), expressed in E. coli BL21 Rosetta2 (DE3); no tag mentioned; helical filament, nucleotide buried between adjacent monomers; P-loop Gly105-Thr112, His280, Asp302

MmRadA [2] = molecular target: T1, MmRadA; assay: X-ray crystallography, […]-2.[…] A; type: binding; conditions: Mg2+, pH 7.9; 0.4 M NH4Cl (3ewa), 0.4 M KCl (3ew9) or 0.1 M NH4Cl (3etl); ATPase site at the monomer interface

T1 sequence (P0CW58 whole entry): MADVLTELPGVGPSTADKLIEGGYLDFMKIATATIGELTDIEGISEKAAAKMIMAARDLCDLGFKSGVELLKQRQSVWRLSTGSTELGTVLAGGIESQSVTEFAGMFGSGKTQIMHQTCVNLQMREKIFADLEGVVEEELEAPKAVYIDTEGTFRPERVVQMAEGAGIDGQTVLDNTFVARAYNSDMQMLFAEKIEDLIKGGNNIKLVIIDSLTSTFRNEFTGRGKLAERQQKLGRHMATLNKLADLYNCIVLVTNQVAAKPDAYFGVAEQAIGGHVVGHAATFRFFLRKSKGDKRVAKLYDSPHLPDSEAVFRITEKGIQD

Structure (SMILES) | Malachite Green phosphate release (ATPase) (MmRadA [1]) | X-ray crystallography, 2.0-2.4 A (MmRadA [2])
Nc1ncnc2c1ncn2[C@@H]1O[C@H](COP(=O)(O)OP(=O)(O)OP(=O)(O)O)[C@@H](O)[C@H]1O [ATP] | the M. maripaludis protein also actively catalyzed ATP hydrolysis in the presence of potassium | –
Nc1ncnc2c1ncn2[C@@H]1O[C@H](COP(=O)(O)OP(=O)(O)NP(=O)(O)O)[C@@H](O)[C@H]1O [AMPPNP] | – | The nonhydrolyzable ATP analogue AMPPNP is buried between the MmRadA monomers as expected.

From publication PMC2685736, “Conservation of a conformational switch in RadA recombinase from Methanococcus maripaludis” (Acta Crystallographica Section D: Biological Crystallography, 2009)
